Measured values: patent EP0589484A1, “1,2-Ethanediol derivative and salt thereof, process for producing the same, and cerebral function-improving agent comprising the same” (TOYAMA CHEMICAL CO., LTD., priority 1989, dated 1990)
Counter-ions that a name gives are not always drawn. Like-named read-outs stand apart in the source and are kept apart here.

Assays:
ddY female mouse = assay: Effect of test compound on hypoxia (antihypoxic activity); type: in vivo; settings: po, read-out: Antihypoxic activity (%)
Experimental: A test compound dissolved in physiological saline (100 mg/kg) was orally administered to a ddY female mouse (5-6 weeks old, each group consisting of 10 mice). After 1 (or 30 minutes*) hour from the administration, each mouse was placed in a 300-ml glass chamber, and a gas mixture consisting of 4% of oxygen and 96% of nitrogen was passed through the chamber at a rate of 5 liters/min. A time from the start of gas passing to the death of each mouse was measured.
To a control mice group was orally administered only physiological saline.
The antihypoxic activity of the test compound was calculated from the following formula: [formula]

ddY male mice = assay: Acute toxicity; type: in vivo, mouse; settings: 50 mg/kg intravenously, group of 3 ddY male mice
Excerpt: A test compound dissolved in physiological saline was intravenously administered to a group of 3 ddY male mice (5-6 weeks old) to examine the acute toxicity of the test compound.

acetylcholinesterase = target: T1, acetylcholinesterase (Mus musculus, UniProt P21836); assay: Inhibitory activity for acetylcholinesterase (method of Ellman et al.); type: biochemical
T1 construct: a mouse cerebral homogenate (as an acetylcholinesterase source); from tissue; host or cells: mouse cerebrum (homogenate)
Experimental: A test was conducted in accordance with the method of Ellman et al. [Biochem. Pharmacol., vol. 7, pp. 88-95, 1961].
That is, acetylthiocholine (as a substrate) was added to a phosphate buffer solution containing 5,5'-dithiobis-(2-nitrobenzoic acid) (DTNB), a test compound and a mouse cerebral homogenate (as an acetylcholinesterase source). The resulting mixture was incubated, and the amount of the resulting 5-thio-2-nitrobenzoic acid was photometrically measured at 412 nm.
The inhibitory activity for acetylcholinesterase of the test compound was expressed by the inhibition (%) when the final concentration of the test compound was 10 µg/ml.

[1] = 100 mg/kg orally, placed in chamber (4% oxygen, 96% nitrogen) after 1 hour from the administration, survival time relative to control
[2] = final concentration of the test compound 10 µg/ml, mouse cerebral homogenate, read-out: Inhibition (%)
[3] = 0.5 h, 100 mg/kg orally, placed in chamber (4% oxygen, 96% nitrogen) after 30 minutes from the administration (values marked *), survival time relative to control

T1 sequence (P21836 32-614): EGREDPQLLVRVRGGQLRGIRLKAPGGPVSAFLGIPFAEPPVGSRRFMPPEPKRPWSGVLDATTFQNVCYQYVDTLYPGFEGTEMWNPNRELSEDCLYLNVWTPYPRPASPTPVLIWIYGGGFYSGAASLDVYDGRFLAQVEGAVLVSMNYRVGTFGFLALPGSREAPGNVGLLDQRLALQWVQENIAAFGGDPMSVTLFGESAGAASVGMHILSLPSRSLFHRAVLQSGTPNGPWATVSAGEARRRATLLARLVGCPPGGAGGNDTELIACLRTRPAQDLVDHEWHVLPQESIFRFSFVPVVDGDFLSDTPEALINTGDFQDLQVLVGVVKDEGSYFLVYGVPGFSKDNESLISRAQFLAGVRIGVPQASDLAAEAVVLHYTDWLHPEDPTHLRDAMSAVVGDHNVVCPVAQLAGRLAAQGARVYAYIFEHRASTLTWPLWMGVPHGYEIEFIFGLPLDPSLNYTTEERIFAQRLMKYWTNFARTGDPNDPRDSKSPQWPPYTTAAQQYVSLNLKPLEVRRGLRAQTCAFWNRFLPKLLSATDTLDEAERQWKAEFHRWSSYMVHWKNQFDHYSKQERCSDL

SMILES	response vs control in vivo at 100 mg/kg (ddY female mouse; [1])	Acute toxicity (ddY male mice)	inhibition at 10 µg/mL (acetylcholinesterase; [2])	response vs control in vivo at 100 mg/kg (ddY female mouse; [3])	further results
CN(C)CCOCC(O)c1ccc(Oc2ccccc2)cc1 (centres unmarked) [Compound No. 54, 2-[2-(N,N-dimethylamino)ethoxy]-1-[4-(4-phenyloxy)phenyl]ethanol hydrochloride]	137%	no death case	83%	–	–
OC(COCCN1CCCC1)c1ccccc1 (centres unmarked) [compound 6]	–	no death case	13%	–	–
CC(OCCN(C)C)C(O)c1ccccc1 (centres unmarked) [compound 30]	–	no death case	22%	–	–
CN(C)CCOCC(O)c1ccc(Cl)c(Cl)c1 (centres unmarked) [compound 34]	221%	no death case	26%	–	–
OC(COCCN1CCCCC1)c1ccc(Cl)c(Cl)c1 (centres unmarked) [compound 37]	148%	–	45%	–	–
CN(C)CCOCC(O)c1ccc(F)cc1 (centres unmarked) [compound 38]	–	no death case	36%	–	–
CN(C)CCOCC(O)c1cccc([N+](=O)[O-])c1 (centres unmarked) [compound 40]	–	no death case	26%	–	–
CN(C)CCOCC(O)c1cccc(OCc2ccccc2)c1 (centres unmarked) [compound 47]	–	–	38%	165%	–
COc1ccc(-c2ccc(C(O)COCCN(C)C)cc2)cc1 (centres unmarked) [compound 55]	207%	–	22%	–	–
CN(C)CCOCC(O)c1cccc(Cc2ccccc2)c1 (centres unmarked) [compound 58]	133%	–	45%	–	–
Cc1cccc(C(O)COCCC2CCN(Cc3ccccc3)CC2)c1 (centres unmarked) [compound 61]	–	–	89%	184%	–
OC(COCCC1CCN(Cc2ccccc2)CC1)c1ccc(F)cc1 (centres unmarked) [compound 62]	127%	–	78%	–	–
Cc1ccccc1-c1ccc(C(O)COCCN(C)C)cc1 (centres unmarked) [compound 65]	–	no death case	62%	–	–
CN(C)CCOCC(O)c1ccc(Oc2ccc(F)cc2)cc1 (centres unmarked) [compound 67]	–	no death case	90%	247%	–
CN(C)CCOCC(O)c1ccc(Oc2ccccc2Cl)cc1 (centres unmarked) [compound 70]	–	no death case	91%	–	–
COc1ccc(Oc2ccc(C(O)COCCN(C)C)cc2)cc1 (centres unmarked) [compound 71]	147%	no death case	87%	–	–
Cc1ccc(Oc2ccc(C(O)COCCN(C)C)cc2)cc1 (centres unmarked) [compound 83]	–	–	93%	177%	–
CN(C)CCOCC(O)c1ccc(OCc2ccncc2)cc1 (centres unmarked) [compound 86]	–	–	50%	130%	–
CN(C)CCOCC(O)c1ccc(CCc2ccccc2)cc1 (centres unmarked) [compound 89]	–	–	44%	156%	–
CN(C)CCOCC(O)c1ccc(OCc2cccc(Cl)c2)cc1 (centres unmarked) [compound 97]	–	–	38%	138%	–

SMILES	response vs control in vivo at 100 mg/kg (ddY female mouse; [1])	Acute toxicity (ddY male mice)	inhibition at 10 µg/mL (acetylcholinesterase; [2])	response vs control in vivo at 100 mg/kg (ddY female mouse; [3])	further results
CN(C)CCOCC(O)c1cccc(NS(=O)(=O)c2ccccc2)c1 (centres unmarked) [compound 182]	–	no death case	38%	–	–
CC(=O)OC(COCCN(C)C)c1cccc(OC(=O)Nc2cccc(Cl)c2)c1.Cl (centres unmarked) [compound 190, 1-acetoxy-1-[3-(3-chlorophenylcarbamoyloxy)phenyl]-2-[2-(N,N-dimethylamino)ethoxy]ethane hydrochloride]	–	no death case	–	–	inhibition at 10 µg/mL (acetylcholinesterase): 76%
CN(C)CCOCC(O)c1ccc(SCc2ccccc2)cc1 (centres unmarked) [compound 222, 1-(4-benzylthiophenyl)-2-[2-(N,N-dimethylamino)ethoxy]ethanol hydrochloride]	–	–	83%	–	response vs control in vivo at 100 mg/kg (ddY female mouse; 0.5 h): 152%
CN(C)CCOCC(O)c1ccc(S(=O)(=O)Cc2ccccc2)cc1 (centres unmarked) [compound 223]	–	–	74%	149%	–
CN(C)CCOCC(O)c1ccc(-c2cccs2)cc1 (centres unmarked) [compound 224]	155%	–	36%	–	–
CN(C)CCOCC(O)c1cccc2ccccc12 (centres unmarked) [compound 228, 2-[2-(N,N-dimethylamino)ethoxy]-1-(1-naphthyl)ethanol hydrochloride]	–	–	30%	–	response vs control in vivo at 100 mg/kg (ddY female mouse; 1 h): 144%
CN(C)CCOCC(O)c1ccc(Cl)c2ccccc12 (centres unmarked) [compound 230]	177%	–	25%	–	–
OC(COCCN1CCCCC1)c1cccc2ccccc12 (centres unmarked) [compound 237]	149%	–	44%	–	–
COc1ccc(C(O)COCCN(C)C)c2ccccc12 (centres unmarked) [compound 239]	150%	–	22%	–	–
CN(C)CCOCC(O)c1cccc2ccc(Cl)cc12 (centres unmarked) [compound 246]	128%	–	30%	–	–
CN(C)CCOCC(O)c1cccc2cccc(Cl)c12 (centres unmarked) [compound 247]	124%	–	26%	–	–
O=C(c1ccc(F)cc1)C1CCN(CCOCC(O)c2cccc3ccccc23)CC1 (centres unmarked) [compound 260, 2-{2-[4-(p-fluorobenzoyl)piperidin-1-yl]ethoxy}-1-(1-naphthyl)ethanol hydrochloride]	–	–	43%	–	response vs control in vivo at 100 mg/kg (ddY female mouse; 1 h): 124%
OC(COCCN1CCN(Cc2ccccc2)CC1)c1cccc2ccccc12 (centres unmarked) [compound 302]	–	–	38%	182%	–
CN(C)CCOCC(O)c1ccc2ncccc2c1 (centres unmarked) [compound 319]	–	no death case	30%	–	–
CN(C)CCCOCC(O)c1ccc2sccc2c1 (centres unmarked) [compound 336]	–	–	21%	224%	–
OC(COCCC1CCN(Cc2ccccc2)CC1)c1ccc2sccc2c1 (centres unmarked) [compound 342]	–	–	67%	157%	–
O=C(c1ccc(F)cc1)C1CCN(CCOCC(O)c2ccc3sccc3c2)CC1 (centres unmarked) [compound 350]	–	–	42%	147%	–
CNc1nc(Cl)c(C(O)COCCN(C)C)cc1F (centres unmarked) [compound 377]	–	no death case	23%	221%	–
CN(C)CCOCC(O)c1ccc([N+](=O)[O-])s1 (centres unmarked) [compound 405, 1-(5-nitro-2-thienyl)-2-[2-(N,N-dimethylamino)ethoxy]ethanol]	–	–	59%	137%	–
